Results from patent US20130252930A1 (BIOMARIN PHARMACEUTICAL INC., priority 2010, published 2013).
Like-named read-outs stand apart in the source and are kept apart here.

Key:
[1] = biological target: T1, CYP17 (human testicular microsome) (Homo sapiens, UniProt P05093); assay: CYP17 enzymatic assay (% inhibition at 10 nM), version 1 (Biological Example 5); format: biochemical; details: 10 nM compound, DHEA by ELISA, read-out: Biological Example No. 5: CYP17 percent inhibition at 10 nM (version 1)
T1 construct: using microsomal fraction from human testis (Celsis Cat #S00110) as the enzyme source; tissue Celsis S00110; host or cells: human testis microsomal fraction
T1 sequence (P05093 1-508): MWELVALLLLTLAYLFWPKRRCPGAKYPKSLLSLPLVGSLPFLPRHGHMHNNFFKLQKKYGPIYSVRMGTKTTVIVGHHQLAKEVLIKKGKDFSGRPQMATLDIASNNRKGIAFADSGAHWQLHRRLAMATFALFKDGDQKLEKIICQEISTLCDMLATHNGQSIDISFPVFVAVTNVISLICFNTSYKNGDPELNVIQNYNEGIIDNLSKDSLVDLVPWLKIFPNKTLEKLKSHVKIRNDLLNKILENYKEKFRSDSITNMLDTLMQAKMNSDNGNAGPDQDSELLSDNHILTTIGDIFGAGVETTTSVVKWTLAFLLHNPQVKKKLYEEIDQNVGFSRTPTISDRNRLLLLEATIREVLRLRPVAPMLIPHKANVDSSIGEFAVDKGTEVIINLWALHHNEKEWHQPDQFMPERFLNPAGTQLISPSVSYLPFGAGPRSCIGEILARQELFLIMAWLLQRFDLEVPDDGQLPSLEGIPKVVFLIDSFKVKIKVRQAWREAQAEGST

[2] = Human liver microsome stability assay (Biological Example 8b); details: liver microsomes, pH 7.4
Procedure: The reaction was started with addition of excess NADPH (5 mg/mL, 15 μL in 0.1 M potassium phosphate buffer, 1.0 mM EDTA, pH 7.4), the total volume is 45 μL (compound final concentration was 1 μM). […] 50 μL of the supernatant was transferred from each well into a 96-well sample plate containing 50 μL of ultra-pure water (Millipore) for LC-MS/MS analysis.

[3] = biological target: T1, CYP17 (human testicular microsome); assay: CYP17 enzymatic assay (IC50) (Biological Example 4); format: biochemical
[4] = biological target: T1, CYP17 (human testicular microsome); assay: CYP17 enzymatic assay (% inhibition at 1 nM) (Biological Example 12); format: biochemical; details: compound at 1 nM
[5] = biological target: T2, Cyp21 enzyme (Human HEK 293-Cyp21 stable transfected cells) (Homo sapiens, UniProt P08686); assay: CYP21-HEK293 enzymatic assay (IC50) (Biological Example 11); format: cell-based; details: HEK 293-Cyp21 stable transfected cells; read-out: CYP21-HEK293 enzymatic assay IC50 (Biological Example No. 11)
T2 construct: expressed in transfected cells
T2 sequence (P08686 1-495): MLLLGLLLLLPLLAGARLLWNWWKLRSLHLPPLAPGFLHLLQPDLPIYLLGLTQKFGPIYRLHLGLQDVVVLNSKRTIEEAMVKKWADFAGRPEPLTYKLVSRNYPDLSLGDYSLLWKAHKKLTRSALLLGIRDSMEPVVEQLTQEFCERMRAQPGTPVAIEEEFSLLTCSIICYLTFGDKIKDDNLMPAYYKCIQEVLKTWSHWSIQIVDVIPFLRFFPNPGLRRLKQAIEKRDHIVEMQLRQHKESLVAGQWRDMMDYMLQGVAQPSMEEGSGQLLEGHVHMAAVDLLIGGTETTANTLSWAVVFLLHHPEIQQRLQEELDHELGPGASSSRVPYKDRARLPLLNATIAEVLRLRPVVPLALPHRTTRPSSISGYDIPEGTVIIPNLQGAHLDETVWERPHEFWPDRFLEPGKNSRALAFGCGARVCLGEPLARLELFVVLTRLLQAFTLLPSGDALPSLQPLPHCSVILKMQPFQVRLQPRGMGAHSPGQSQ

[6] = human testicular microsome, DHEA by ELISA, read-out: Biological Example No. 4: CYP17 enzymatic assay IC50
[7] = read-out: CYP17 enzymatic assay % inhibition at 1 nM (Biological Example No. 12)
[8] = human testicular microsome, read-out: CYP17 enzymatic assay IC50 (Biological Example No. 4)
[9] = read-out: Biological Example No. 12: CYP17 enzymatic assay % inhibition at 1 nM
[10] = human testicular microsome, read-out: Biological Example No. 4: CYP17 enzymatic assay IC50

| SMILES | half-life at 1 μM [2] | inhibition at 0.001 µM [4, 7] | inhibition at 0.001 µM [4, 9] | IC50 [3, 10] | further results |
| --- | --- | --- | --- | --- | --- |
| C[C@]12CCCCC1C(O)C[C@@H]1[C@@H]2CC[C@]2(C)C(n3ccnc3)=CC[C@@H]12 (stereo partly drawn) [Compound 85, (10R,13S)-17-(1H-imidazol-1-yl)-10,13-dimethyl-2,3,4,5,6,7,8,9,10,11,12,13,14,15-tetradecahydro-1H-cyclopenta[a]phenanthren-6-ol] | 1 to 50 min | – | – | – | inhibition at 0.01 µM [1]: 50 to 80%; IC50 [3, 6]: < 11 nM |
| C[C@]12CCC(=O)CCC1=CCC1[C@@H]2CC[C@]2(C)C(n3ccnc3)=CC[C@@H]12 (stereo partly drawn) [Compound 106, (3aS,10aR,10bS,12aS)-1-(1H-imidazol-1-yl)-10a,12a-dimethyl-3,3a,3b,4,6,7,10,10a,10b,11,12,12a-dodecahydrocyclohepta[a]cyclopenta[f]naphthalen-8(9H)-one] | 1 to 50 min | – | – | – | inhibition at 0.01 µM [1]: > 80%; IC50 [3, 6]: < 11 nM |
| C[C@]12CC[C@H]3[C@@H](CC[C@H]4C[C@@H](O)CC[C@@]43C)C1=CC=C2c1cccnc1 [Compound 163, (5S,8R,9S,10S,13S)-10,13-dimethyl-17-(pyridin-3-yl)-2,3,4,5,6,7,8,9,10,11,12,13-dodecahydro-1H-cyclopenta[a]phenanthren-3-ol] | > 50 min | – | – | – | inhibition at 0.01 µM [1]: > 80%; IC50 [3, 6]: < 11 nM |
| CCCC(=O)N[C@@H]1CC[C@@]2(C)C(=CC[C@@H]3[C@@H]2CC[C@]2(C)C(c4cccnc4)=CC[C@@H]32)C1 [Compound 235, N-((3R,10R,13S)-10,13-dimethyl-17-(pyridin-3-yl)-2,3,4,7,8,9,10,11,12,13,14,15-dodecahydro-1H-cyclopenta[a]phenanthren-3-yl)butyramide] | 1 to 50 min | > 50% | – | – | IC50 [3, 8]: < 11 nM |
| C[C@]12CCC(NC(=O)C3CCC3)CC1=CCC1C2CC[C@]2(C)C(n3ccnc3)=CCC12 (stereo partly drawn) [Compound 240, N-((10R,13S)-17-(1H-imidazol-1-yl)-10,13-dimethyl-2,3,4,7,8,9,10,11,12,13,14,15-dodecahydro-1H-cyclopenta[a]phenanthren-3-yl)cyclobutanecarboxamide] | 1 to 50 min | > 50% | – | – | IC50 [3, 8]: < 11 nM |
| C[C@]1(O)CC[C@@]2(C)C(CCC3C2CC[C@]2(C)C(c4cccnc4)=CCC32)C1 (stereo partly drawn) [Compound 254, (3S,10S,13S)-3,10,13-trimethyl-17-(pyridin-3-yl)-2,3,4,5,6,7,8,9,10,11,12,13,14,15-tetradecahydro-1H-cyclopenta[a]phenanthren-3-ol] | 1 to 50 min | > 50% | – | – | IC50 [3]: < 11 nM |
| C[C@]1(O)CC[C@@]2(C)C(CCC3C4=CC=C(c5cccnc5)[C@@]4(C)CCC32)C1 (stereo partly drawn) [Compound 259, (3S,10S,13S)-3,10,13-trimethyl-17-(pyridin-3-yl)-2,3,4,5,6,7,8,9,10,11,12,13-dodecahydro-1H-cyclopenta[a]phenanthren-3-ol] | 1 to 50 min | 10 to 50% | – | – | IC50 [3]: < 11 nM |
| C[C@]12CC[C@H](O)CC1=CCC1C2CC[C@]2(C)C(c3cncc(F)c3)=CCC12 (stereo partly drawn) [Compound 274, (3S,10R,13S)-17-(5-fluoropyridin-3-yl)-10,13-dimethyl-2,3,4,7,8,9,10,11,12,13,14,15-dodecahydro-1H-cyclopenta[a]phenanthren-3-ol] | > 50 min | – | > 50% | < 11 nM | – |
| C[C@]12CC[C@H](O)CC1=CCC1C2CC[C@]2(C)C(c3ccc(F)nc3)=CCC12 (stereo partly drawn) [Compound 276, (3S,10R,13S)-17-(6-fluoropyridin-3-yl)-10,13-dimethyl-2,3,4,7,8,9,10,11,12,13,14,15-dodecahydro-1H-cyclopenta[a]phenanthren-3-ol] | 1 to 50 min | – | 10 to 50% | > 25 nM | – |
| C[C@]12CC[C@H](O)CC1=CCC1C2CC[C@]2(C)C(c3cncc(Cl)c3)=CCC12 (stereo partly drawn) [Compound 280, (3S,10R,13S)-17-(5-chloropyridin-3-yl)-10,13-dimethyl-2,3,4,7,8,9,10,11,12,13,14,15-dodecahydro-1H-cyclopenta[a]phenanthren-3-ol] | 1 to 50 min | – | > 50% | < 11 nM | – |
| C[C@]12CC[C@H](O)CC1=CCC1C2CC[C@]2(C)C(c3cncc(N)c3)=CCC12 (stereo partly drawn) [Compound 283, (3S,10R,13S)-17-(5-aminopyridin-3-yl)-10,13-dimethyl-2,3,4,7,8,9,10,11,12,13,14,15-dodecahydro-1H-cyclopenta[a]phenanthren-3-ol] | > 50 min | – | > 50% | < 11 nM | – |
| CC1(C)C2=CCC3C4=CC=C(c5cccnc5)[C@@]4(C)CCC3[C@@]2(C)CCC1O (stereo partly drawn) [Compound 298, (10R,13S)-4,4,10,13-tetramethyl-17-(pyridin-3-yl)-2,3,4,7,8,9,10,11,12,13-decahydro-1H-cyclopenta[a]phenanthren-3-ol] | 1 to 50 min | 10 to 50% | – | – | IC50 [3, 8]: > 25 nM |
| C[C@]12CCC3C(CC(F)[C@]4(O)C[C@@H](O)CC[C@]34C)C1CC=C2c1cccnc1 (stereo partly drawn) [Compound 322, (3S,5S,10R,13S)-6-fluoro-10,13-dimethyl-17-(pyridin-3-yl)-2,3,4,5,6,7,8,9,10,11,12,13,14,15-tetradecahydro-1H-cyclopenta[a]phenanthrene-3,5-diol] | 1 to 50 min | – | > 50% | < 11 nM | – |
| C[C@]12CCC3C(CC(F)[C@@]4(O)C[C@@H](O)CC[C@]34C)C1CC=C2c1cccnc1 (stereo partly drawn) [Compound 323, (3S,5R,10R,13S)-6-fluoro-10,13-dimethyl-17-(pyridin-3-yl)-2,3,4,5,6,7,8,9,10,11,12,13,14,15-tetradecahydro-1H-cyclopenta[a]phenanthrene-3,5-diol] | 1 to 50 min | – | > 50% | < 11 nM | – |
| C=C1C[C@H]2C3=CC=C(c4cccnc4)[C@@]3(C)CC[C@@H]2[C@@]2(C)CCC(=O)C=C12 [Compound 348, (10R,13S)-10,13-dimethyl-6-methylene-17-(pyridin-3-yl)-6,7,8,9,10,11,12,13-octahydro-1H-cyclopenta[a]phenanthren-3(2H)-one] | – | – | – | – | IC50 [5]: 10 to 100 nM |
| CC(=O)N[C@@H]1CC[C@@]2(C)C(=CC[C@@H]3[C@@H]2CC[C@]2(C)C(c4cncc(F)c4)=CC[C@@H]32)C1 [Compound 427, N-((3R,10R,13S)-17-(5-fluoropyridin-3-yl)-10,13-dimethyl-2,3,4,7,8,9,10,11,12,13,14,15-dodecahydro-1H-cyclopenta[a]phenanthren-3-yl)acetamide] | 1 to 50 min | – | > 50% | < 11 nM | – |
| C#C[C@]1(O)CC[C@@]2(C)C(CCC3C2CC[C@]2(C)C(c4cccnc4)=CCC32)C1 (stereo partly drawn) [Compound 474, (3S,10S,13S)-3-ethynyl-10,13-dimethyl-17-(pyridin-3-yl)-2,3,4,5,6,7,8,9,10,11,12,13,14,15-tetradecahydro-1H-cyclopenta[a]phenanthren-3-ol] | > 50 min | 10 to 50% | – | – | IC50 [3, 8]: > 25 nM |
| CC(=O)N[C@@H]1CC[C@@]2(C)C(=CCC3C2CC[C@]2(C)C(c4cncc(C(F)F)c4)=CCC32)C1 (stereo partly drawn) [Compound 480, N-((3R,10R,13S)-17-(5-(difluoromethyl)pyridin-3-yl)-10,13-dimethyl-2,3,4,7,8,9,10,11,12,13,14,15-dodecahydro-1H-cyclopenta[a]phenanthren-3-yl)acetamide] | 1 to 50 min | – | > 50% | < 11 nM | – |
